Results: patent publication US10450258B2, “Substituted aromatic compounds for the treatment of pulmonary fibrosis, liver fibrosis, skin fibrosis and cardiac fibrosis” (PROMETIC PHARMA SMT LIMITED, priority 2013, dated 2019)
Counter-ions that a name gives are not always drawn.

Experiments:
[1] = system: α-SMA mRNA in NRK-49F cells; assay: Inhibition of α-SMA mRNA in TGF-β-activated NRK-49F fibroblasts; assay type: cell-based, rat
Description: (§1) CTGF, collagen 1 and α-SMA are fibrotic markers produced by activated fibroblasts and by epithelial cells that undergo to epithelial-mesenchymal transition (EMT).
(§2) Table 2: Percentage of inhibition of collagen in epithelial cells (HK2 cells) and fibroblasts (NHDF) and percentage of inhibition of α-SMA in fibroblasts (NRK-49F and NHDF) has been determined for several compounds according the invention. In all cases, the mRNA of collagen and α-SMA has been measured, and the inhibition was evaluated in presence of a respective concentration of the tested compound. The compounds have been tested at different concentrations [mM]. All compounds reduce the expression of collagen and α-SMA in HK-2, NHDF and NRK-49F cells.

[2] = system: collagen 1 mRNA in HK-2 cells (epithelial cells); assay: Inhibition of collagen mRNA in TGF-β-treated HK-2 epithelial cells; assay type: cell-based; settings: for inhibition at 500 µM: HK-2, compound 0.5 mM; for Collagen HK-2 cells % inhibition: compound 0.25 mM
Description: as §1, §2

[3] = system: collagen 1 mRNA in NHDF cells; assay: Inhibition of collagen mRNA in TGF-β-activated NHDF fibroblasts; assay type: cell-based; settings: Homo sapiens, compound 0.5 mM
Description: as §1, §2

[4] = system: CCl4-induced liver fibrosis mouse model; assay: CCl4-induced liver fibrosis mouse model; assay type: in vivo, mouse (male C57BL/6); settings: CCl4 twice a week for 8 weeks; oral 100 and 200 mg/kg every day, day 1 to day 58; FIG. 22
Source text: Hepatic fibrosis is an outcome of many chronic liver diseases, including hepatitis B virus, hepatitis C virus, alcoholic liver disease, non-alcoholic steatohepatitis and diverse chronic intoxication. It was thus desired to evaluate the effect of Compound I on murine CCl4-induced liver fibrosis. Intoxication with CCl4 results in hepatocyte damage, necrosis, inflammation, and fibrosis, which spreads to link the vascular structures that feed into and drain the hepatic sinusoid (the portal tract and central vein radical, respectively), and over 8-30 weeks results in the development of fibrosis to hepatocellular carcinoma. Therefore, evaluation of candidate antifibrotic drugs such as Compound I can be undertaken by treatment of the mice at appropriate time points and histologic, biochemical and cellular readouts may be used to monitor candidate drug efficacy in this model.
CCl4 (10% in corn oil, 2 ml/kg) was intraperitoneally injected twice a week for 16 weeks in male C57BL/6. Compound I (200 mg/kg) was orally administered every day from day 1 to day 113. Mice were euthanasized and histology and liver fibrotic markers were analyzed.
To determine if Compound I has an effect on liver fibrosis, hydroxyproline level was used to measure the collagen content in the tissue, which is indicative of liver fibrosis.
The reduction of collagen level in liver tissue was also observed in histological micrographs using the Masson's Trichrome staining.
The Masson's trichrome stain the cytoplasm, keratin, muscle fibers and intracellular fibers in red colour; nuclei in black colour and collagen (fibrous tissue) in blue color.
Another experiment has been performed with Compound 1 and Compound V where CCL4 (10% in olive oil, 2 ml/kg) was intraperitoneally injected twice a week for 8 weeks in male C57BL/6. Compound 1 and compound V were orally administered (100 and 200 mg/kg) every day from day 1 to day 58. Mice were euthanasized and collagen content (marker of fibrosis) in the liver was quantified by histomorphometry using Masson's trichrome staining.

α-SMA mRNA in NHDF cells = assay: Inhibition of α-SMA mRNA in TGF-β-activated NHDF fibroblasts; assay type: cell-based; settings: Homo sapiens, compound 0.5 mM
Description: as §1, §2

[5] = Toxicity related to drug in the bleomycin-induced pulmonary fibrosis mouse model; assay type: in vivo; settings: oral, Compound I 200 mg/kg, pirfenidone 400 mg/kg, alone or in combination, solubilized in PBS
Description: (§3) It was therefore evaluated side-by-side with Compound I in the bleomycin-induced pulmonary fibrosis mouse model by the same protocol described in Example 4 above. Compound I (200 mg/kg) and pirfenidone (400 mg/kg) were orally administered either alone or in combination.
Compound I and pirfenidone were solubilized in PBS. In the combination therapy, pirfenidone was solubilized in a solution of Compound I. No toxicity was reported with Compound I treatment.

[6] = system: bleomycin-induced pulmonary fibrosis mouse model; assay: Bleomycin-induced pulmonary fibrosis mouse model: body weight and lung histology; assay type: in vivo, mouse (male C57BL6); settings: oral, Compound I 200 mg/kg, pirfenidone 400 mg/kg
Description: Intratracheal instillation of the anticancer drug bleomycin into the mouse results in acute inflammation followed by a chronic fibrotic response. Therefore, evaluation of candidate antifibrotic drugs such as Compound I can be undertaken by treatment of the mice at appropriate time points and histologic, biochemical and cellular readouts may be used to monitor candidate drug efficacy in this model.
(§4) Male C57BL6 mice are administered intratracheal instillation of bleomycin sulphate (0.025 U) at day 0, randomized and administered Compound I (oral administration, 100 mg/kg and 200 mg/kg) on day 7 to day 20.
Lesions score was evaluated using HEP (Hemalun with Eosin/Ploxine) and Masson's trichrome staining. Lesions score was recorded as 1) Consolidation as shown by disrupted lung architecture (cellular and/or fibrosis) and 2) Alveolar wall as shown by thickness and shrinking outside of consolidated area.
as §3
Lesions score was evaluated using HEP (Hemalun with Eosin/Ploxine) and Masson's trichrome staining and recorded as 1) Consolidation as shown by disrupted lung architecture (cellular and/or fibrosis), and 2) Alveolar wall as shown by thickness and shrinking outside of consolidated area.
The lesions score as determined by the percentage of leukocyte infiltration (inflammatory zone) multiplied by the percentage of collagen found in the leukocyte infiltrate was quantified by histomorphometry using Masson's trichrome staining.
Visual grading of pulmonary fibrosis was also determined according to Ashcroft's score. Briefly, the entire fields of each lung section were read by a blinded examiner, and each field was visually graded from 0 to 8. Criteria for grading lung fibrosis were as follows: Grade 0=normal lung; Grade 1=minimal fibrous thickening of alveolar or bronchiolar walls; Grade 3=moderate thickening of walls without obvious damage to lung architecture; Grade 5=increased fibrosis with definitive damage to lung structure and formation of fibrous bands or small fibrous masses; Grade 7=severe distortion of structure and large fibrous area; Grade 8=total fibrous obliteration of lung fields.

[7] = system: TGF-β, CTGF, IL-23p19, IL-6, collagen 1, fibronectin (FN-1), collagen 3 mRNA in lung tissue; assay: Real-time PCR of inflammatory and fibrotic marker mRNA in lung tissue, bleomycin-induced pulmonary fibrosis mouse model; assay type: in vivo, mouse (male C57BL6); settings: oral, Compound I 200 mg/kg, pirfenidone 400 mg/kg, alone or combined
Description: as §4
Further analysis of the lung tissue was undertaken. CTGF, collagen 1 and IL-23p19 mRNA expression was quantified by real-time PCR.
as §3
In order to determine the effect of Compound I on pulmonary fibrosis, further analysis of the lung tissue was undertaken. TGF-β, CTGF, IL-23 and IL-6 mRNA expression was quantified by real-time PCR. […] Oral administration of pirfenidone had no effect on CTGF mRNA expression but decreased TGF-β, IL-23 and IL-6 mRNA expression. […]

[8] = Rattus norvegicus, NRK-49F, compound 0.5 mM
[9] = Rattus norvegicus, NRK-49F, compound 0.25 mM

For `CCCCCc1cc(O)cc(CC(=O)O)c1` [Compound II, Sodium Salt of 3-hydroxy-5-pentylphenylacetic acid], the inhibition at 500 µM [1, 8] was 66%, the inhibition at 500 µM ([2]; Homo sapiens) was 43% and the inhibition at 500 µM [3] was 40%.

Compound `CCCCCc1cc(F)cc(CC(=O)O)c1` [Compound III, Sodium Salt of 3-fluoro-5-pentylphenylacetic acid] has an inhibition at 250 µM [1, 9] of 100% and an inhibition at 500 µM ([2]; Homo sapiens) of 100%.

Work on `CCC/C=C/c1cccc(CC(=O)O)c1` [Compound IV, Sodium Salt of E-(3-pent-1-enyl-phenyl)acetic acid] yielded an inhibition at 500 µM [1, 8] of 64%.

With `CCCCCc1cccc(C(F)C(=O)[O-])c1.[Na+]` (stereo not drawn) [Compound IX, Sodium Salt of 2-Fluoro-2-(3-pentylphenyl)acetic acid] the “α-SMA NRK-49F cells % inhibition” value ([1]; compound 0.5 mM) was 82%.

With `CCCCCc1ccc(O)c(CC(=O)O)c1` [Compound V, Sodium Salt of (2-hydroxy-5-pentylphenyl)acetic acid] the inhibition at 500 µM [1, 8] was 100%, the inhibition at 500 µM ([2]; Homo sapiens) was 100% and the “collagen content in liver (histomorphometry, Masson's trichrome)” value [4] was “significant reduction”. It also gave an inhibition at 500 µM [3] of 100% and an inhibition at 500 µM (α-SMA mRNA in NHDF cells) of 100%.

Compound `CCCCCc1cc(CCC(=O)O)ccc1F` [Compound VI, Sodium Salt of 3-(4-fluoro-3-pentylphenyl)propionic acid] has an inhibition at 125 µM ([1]; Rattus norvegicus, NRK-49F, compound 0.125 mM) of 90%.

For `CCCCCc1cccc(CCC(=O)[O-])c1.[Na+]` [Compound VII, Sodium Salt of 3-(3-pentylphenyl)propionic acid], the “α-SMA NRK-49F cells % inhibition” value ([1]; compound 0.25 mM) was 100%.

With `CCCCCc1cccc(C(C)C(=O)[O-])c1.[Na+]` (stereo not drawn) [Compound VIII, Sodium Salt of 2-(3-pentylphenyl)propionic acid] the “α-SMA NRK-49F cells % inhibition” value ([1]; compound 0.25 mM) was 86%.

For `CCCCCc1cccc(C(C)(C)C(=O)[O-])c1.[Na+]` [Compound X, Sodium Salt of 2-methyl-2-(3-pentylphenyl)propionic acid], the “α-SMA NRK-49F cells % inhibition” value ([1]; compound 0.1 mM) was 46%.

`CCCCCCc1cccc(CC(=O)O)c1` [Compound XI, Sodium Salt of 2-(3-Hexylphenyl)acetic acid] gave an inhibition at 100 µM ([1]; Rattus norvegicus, NRK-49F, compound 0.1 mM) of 80%.

In the case of `CCCCC=Cc1cccc(CC(=O)[O-])c1.[Na+]` [Compound XII, Sodium Salt of 2-(3-(Hex-1-enyl)phenyl)acetic acid], the “α-SMA NRK-49F cells % inhibition” value ([1]; compound 0.1 mM) is reported as 49%.

For `CCCC=Cc1ccc(F)c(CC(=O)[O-])c1.[Na+]` [Compound XIII, Sodium Salt of 2-(2-Fluoro-5-(pent-1-enyl)phenyl)acetic acid], the “α-SMA NRK-49F cells % inhibition” value ([1]; compound 0.5 mM) was 84%.

With `CCCCCc1cc(CC(=O)O)ccc1O` [Compound XIV, Sodium Salt of 2-(4-Hydroxy-3-pentylphenyl)acetic acid] the inhibition at 500 µM [1, 8] was 92%, the inhibition at 500 µM ([2]; Homo sapiens) was 72% and the inhibition at 500 µM [3] was 26%.

In the case of `CCCCCc1cccc(CC(=O)[O-])c1O.[Na+]` [Compound XIX, Sodium Salt of 2-(2-Hydroxy-3-pentylphenyl)acetic acid], the “α-SMA NRK-49F cells % inhibition” value ([1]; compound 0.25 mM) is reported as 100% and the “Collagen HK-2 cells % inhibition” value [2] is reported as 100%.

In the case of `CCCCCc1cc(CC(=O)O)ccc1F` [Compound XV, Sodium Salt of 2-(4-Fluoro-3-pentylphenyl)acetic acid], the inhibition at 500 µM [1, 8] is reported as 100% and the inhibition at 500 µM ([2]; Homo sapiens) is reported as 100%.

Compound `CCCCCc1cccc(CC(=O)O)c1F` [Compound XVI, Sodium Salt of 2-(2-Fluoro-3-pentylphenyl)acetic acid] has an inhibition at 250 µM [1, 9] of 100% and an inhibition at 500 µM ([2]; Homo sapiens) of 100%.

With `CCCCCc1cc(CCC(=O)[O-])ccc1O.[Na+]` [Compound XVII, Sodium Salt of 3-(4-Hydroxy-3-pentylphenyl)propanoic acid] the “α-SMA NRK-49F cells % inhibition” value ([1]; compound 0.5 mM) was 66% and the “Collagen HK-2 cells % inhibition” value [2] was 0%.

For `CCCCCc1cccc(C(=O)C(=O)[O-])c1.[Na+]` [Compound XVIII, Sodium Salt of 2-Oxo-2-(3-pentylphenyl)acetic acid], the “α-SMA NRK-49F cells % inhibition” value ([1]; compound 0.25 mM) was 100%.

Work on `CCCCCc1cc(O)c(Cc2ccccc2)c(CC(=O)O)c1` [Compound XX, Sodium Salt of 2-(2-Benzyl-3-hydroxy-5-pentylphenyl)acetic acid] yielded an inhibition at 62.5 µM ([1]; Rattus norvegicus, NRK-49F, compound 0.0625 mM) of 95% and an inhibition at 125 µM ([2]; Homo sapiens, HK-2, compound 0.125 mM) of 73%.

With `Cc1ccc(=O)n(-c2ccccc2)c1` [Pirfenidone, pirfenidone, reference compound] the “Toxicity related to drug” value [5] was “Vertigo ++++”, the “Toxicity related to drug” value ([5]; listed as pirfenidone) was “severe vertigo” and the “histological lesion score of lungs (HEP and Masson's trichrome)” value ([6]; alone or combined, FIG. 8) was “no reduction of fibrosis at the histological level”. The “visual grading of pulmonary fibrosis (Ashcroft's score)” value ([6]; alone or combined, FIG. 11) was “weak activity”, the “lesions and fibrosis in lungs (photomicrographs stained with HEP)” value ([6]; FIG. 10) was “no effect” and the “TGF-β mRNA expression in lungs” value ([7]; FIG. 12) was “decreased”. For the same compound, the “CTGF mRNA expression in lungs” value ([7]; FIG. 13) was “no effect”, the “IL-23 mRNA expression in lungs” value ([7]; FIG. 14) was “decreased” and the “IL-6 mRNA expression in lungs” value ([7]; FIG. 15) was “decreased”. For the same compound, the “collagen 3 mRNA expression in lungs” value ([7]; FIG. 18) was “no effect”, the “collagen 1 mRNA expression in lungs” value ([7]; reduction to the control level, FIG. 16) was “significant reduction” and the “fibronectin (FN-1) mRNA expression in lungs” value ([7]; reduction to the control level, FIG. 17) was “significant reduction”.
